# Source: patent US20060193772A1, “Drugs for treating cancer” (priority 2003, published 2006)
# System: multiple myeloma cell line, LP-1 cells
# Assay: LP-1 viable cell number (WST-1), doxorubicin and KM 1468 administration methods (Example 3)
# Format: cell-based
# Conditions: 1 μmol/L doxorubicin, 1 μg/mL KM 1468, cells only = 100%
# Description: Multiple myeloma cell line, LP-1 cells (DSMZ ACC41) were seeded in a 96-well culture plate in an amount of 100 μL/well (10,000 cells). Doxorubicin and anti-IGF monoclonal antibody […] were added, and the mixture was cultured at 37° C. for 3 days. The addition of doxorubicin and KM 1468 to the medium was conducted by the following three methods.
# Method 1: Cells were cultured in 150 μL of a medium in which doxorubicin was solely added on day 1, and in 200 μL of a medium in which doxorubicin and KM 1468 were added on days 2 and 3.
# Method 2: Cells were cultured in 150 μL of a medium in which KM 1468 were solely added on day 1, and in 200 μL of a medium in which doxorubicin and KM 1468 were added on days 2 and 3.
# Method 3: Cells were cultured in a medium comprising doxorubicin and KM 1468 (an amount of the medium is 150 μL on day 1 and 200 μL each on days 2 and 3) for three days.
# In all of the foregoing methods, doxorubicin and KM 1468 were added so that the final concentrations of doxorubicin and KM 1468 became 1 μmol/L and 1 μg/mL, respectively.
# After the culturing, cell proliferation reagent WST-1 (manufactured by Roche) was added in an amount of 20 μL/well, and the mixture was cultured at 37° C. for from 2 to 3 hours. OD450 was measured with microplate reader M-SPmax 250 (manufactured by Molecular Devices). The number of viable cells after the treatment with the agent was expressed as a relative value when OD450 in which cells were solely added was regarded as 100%.
compound,measurement,setting,value
COc1cccc2c1C(=O)c1c(O)c3c(c(O)c1C2=O)C[C@@](O)(C(=O)CO)C[C@@H]3O[C@H]1C[C@H](N)[C@H](O)[C@H](C)O1 [Doxorubicin],Relative value of cell number,"Method 1 group: doxorubicin on day 1, doxorubicin and KM 1468 on days 2 and 3",40%
same,Relative value of cell number,"Method 2 group: KM 1468 on day 1, doxorubicin and KM 1468 on days 2 and 3",57%
same,Relative value of cell number,Method 3 group: doxorubicin and KM 1468 for three days,44%
